From patent US20200245616A1, “A Disinfectant Composition with Extended Antimicrobial Effects” (Siamons International Inc., priority 2017, published 2020)

Experiments:
Type in all cases: cell-based
[1] = tested on: Staphylococcus aureus ATCC 6538; test: AOAC Official Method 961.02 Germicidal Spray Method, bacteria on glass carriers; details: for Staphylococcus aureus Growth Rate: 10 min contact
Excerpt: (§1) In this method, a series of glass slides (“carriers”) were inoculated with a representative test organism and the carriers were dried under ambient conditions. The dried organisms on the surface of the carrier were then sequentially treated with the composition of the present disclosure in the form of a spray product and were exposed for a pre-determined exposure time. After exposure, the carriers were sequentially transferred to a liquid subculture medium specifically selected to neutralize the composition of the present disclosure and to recover any surviving test organism. The carriers were incubated and visually examined for the presence or absence of growth. […] Required organisms for a disinfection claim include but are not limited to Staphylococcus aureus, Salmonella choleraesuis and Pseudomonas aeruginosa.
(§2) Method Adapted to the Preparation of Bacteria Cultures from −80° C. Freshly Recovered Stock. […] Added 10 μL of the thawed stock to a tube containing 10 mL synthetic broth and then vortexed to mix. Discarded the rest of cryovial stock. • Incubated the tube at 36 ±1° C. for 24 hours (h). Briefly vortexed the 24 h culture prior to transfer. For this final subculture step, inoculated two 20×150 mm tubes containing 10 mL synthetic broth with […] of the 24 h synthetic broth culture. • Incubated 48 h at 36±1° C. Using a Vortex-style mixer, mixed synthetic broth test cultures 3-4 seconds and let stand 10 minutes at room temperature before continuing. Removed the upper portion of each culture, leaving behind any debris or clumps, and transferred to a sterile tube. Titrated the culture by plating on synthetic agar plates, and diluted to 5×10^8 Colony Forming Units (CFU) per mL.
(§3) High volume screening studies were conducted in some cases where only 4 organism-inoculated carriers were treated at specified concentrations of CTAB. Vortex-mixed the inoculum periodically during inoculation of the carriers. • Immediately spread the inoculum uniformly over the majority of the carrier surface using a sterile loop. […] Covered dish immediately and repeated operation until 64 carriers had been prepared for the test. Once all of the carriers had been inoculated, placed in incubator at 37° C. for 40 minutes until dry.
(§4) • After the test organisms were dried on the surface of the carrier, each carrier was sprayed with the respective disinfection formulae 10 times in 10 seconds at a distance of 30 cm. • Treatment interval was timed. Ten (10) minutes after each carrier had been sprayed by the disinfectant, the excess liquid was removed and the carriers were transferred in a sequentially timed fashion into the culture tubes containing 20 ml neutralizer (Letheen Broth with 0.07% Lecithin/0.5% Tween 80/0.1% Sodium Thiosulfate) to neutralize the disinfectant. […] The percentage of the treated carriers showing growth after 48 hours was recorded.

[2] = tested on: Penicillium variable ATCC 32333; test: AOAC Official Method 961.02 Germicidal Spray Method, fungal conidia on glass carriers; details: 10 min contact
Excerpt: as §1
(§5) The conidiospore suspension was macerated in a tissue grinder. The suspension was filtered through sterile cotton to remove the hyphae and hyphal fragments.
(§6) Vortex-mixed the inoculum periodically during inoculation of the carriers. • Immediately spread the inoculum uniformly over the majority of the carrier surface using a sterile loop. […] High volume screening studies were conducted in some cases where only 4 organism-inoculated carriers were treated at specified concentrations of CTAB. Once all of the carriers had been inoculated, the carriers were placed in an incubator at 37° C. for 40 minutes until completely dry.
(§7) • After drying, each carrier was sprayed with the respective disinfection formulae 10 times in 10 seconds at a distance of 30 cm. • Timed the treatment interval. Ten (10) minutes after each carrier had been exposed to the disinfectant, the excess liquid was removed and the carriers were transferred in a sequentially timed fashion into the culture tubes containing 20 ml neutralization broth (Letheen Broth with 0.07% Lecithin /0.5% Tween 80) to neutralize the disinfectant. • After the carriers were deposited in the respective culture tubes, the tubes were recapped and the cultures were thoroughly resuspended. • Incubated all neutralization tubes at 28 ±1° C. for 14 days. • After 14 days, the cultures within the tubes were examined for growth. The percentage of the treated carriers showing growth was recorded.

[3] = tested on: Aspergillus niger ATCC 6275; test: as above; details: 10 min contact
Excerpt: as §1, §5, §6, §7

[4] = tested on: Trichophyton mentagrophytes ATCC 9533; test: as above; details: 10 min contact
Excerpt: as §1, §5, §6, §7

[5] = tested on: select bacteria and fungal organisms; test: Germicidal spray disinfection, summary over the tested organisms; details: 0.01% QAH in CMC; 10-minute contact time
Description: All experiments were conducted according to the protocol outlined in AOAC Official Method 961.02 (Germicidal Spray Method), which is a carrier-based method used to evaluate disinfection efficacy of aerosol/pump-based spray products and liquid products for registration with regulatory agencies such as the U.S. EPA and Health Canada.
It was expected that if the CTAB was replaced by QAH's of similar structure that the disinfection of selected bacteria and fungal organisms would be similarly achieved. […] In the case of bacteria testing, the experimental procedure was as outlined in Example 1 for disinfection of bacterial cultures. In the case of fungal organisms, the experimental procedure was as outlined in Example 1 for the preparation of fungal cultures.

[6] = tested on: Pseudomonas aeruginosa ATCC 15442; test: AOAC Official Method 961.02 Germicidal Spray Method, bacteria on glass carriers; details: 10 min contact
Excerpt: as §1, §2, §3, §4

Molecule | Staphylococcus aureus Growth Rate ([1]; CMC + QAH, QAH 0.010%) | Staphylococcus aureus Growth Rate ([1]; CMC + QAH, QAH 0.100%) | Staphylococcus aureus Growth Rate ([1]; CMC + QAH, QAH 1.000%) | Staphylococcus aureus Growth Rate ([1]; Water + QAH, QAH 0.010%) | Staphylococcus aureus Growth Rate ([1]; Water + QAH, QAH 0.100%) | Staphylococcus aureus Growth Rate ([1]; Water + QAH, QAH 1.000%) | Penicillium variable Growth Rate ([2]; CMC + QAH, QAH 0.010%) | Penicillium variable Growth Rate ([2]; CMC + QAH, QAH 0.100%) | Penicillium variable Growth Rate ([2]; CMC + QAH, QAH 1.000%) | Penicillium variable Growth Rate ([2]; Water + QAH, QAH 0.010%) | Penicillium variable Growth Rate ([2]; Water + QAH, QAH 0.100%) | Penicillium variable Growth Rate ([2]; Water + QAH, QAH 1.000%) | Trichophyton mentagrophytes Growth Rate ([4]; CMC + QAH, QAH 0.010%) | Trichophyton mentagrophytes Growth Rate ([4]; CMC + QAH, QAH 0.100%) | Trichophyton mentagrophytes Growth Rate ([4]; CMC + QAH, QAH 1.000%) | Trichophyton mentagrophytes Growth Rate ([4]; Water + QAH, QAH 0.010%) | Trichophyton mentagrophytes Growth Rate ([4]; Water + QAH, QAH 0.100%) | Trichophyton mentagrophytes Growth Rate ([4]; Water + QAH, QAH 1.000%) | effectiveness against the target organisms [5] | Pseudomonas aeruginosa Growth Rate ([6]; CMC + QAH, QAH 0.010%) | further results
CCCC[N+](CCCC)(CCCC)Cc1ccccc1.[Cl-] [BTBAC, Benzyltri-n-butylammonium chloride] | 100% | 100% | 100% | 100% | 100% | 100% |  |  |  |  |  |  |  |  |  |  |  |  |  |  | killing Staphylococcus aureus ([1]; 1.0% QAH): incapable of killing
Alkyldimethylbenzylammonium chloride [ADBAC] |  |  |  |  |  |  | 0% | 0% | 0% | 0% | 0% | 0% | 0% | 0% | 0% | 0% | 0% | 0% | remarkable effectiveness | 0% | Aspergillus niger Growth Rate ([3]; CMC + QAH, QAH 0.010%): 100%; Aspergillus niger Growth Rate ([3]; CMC + QAH, QAH 0.100%): 0%; Aspergillus niger Growth Rate ([3]; CMC + QAH, QAH 1.000%): 0%; Aspergillus niger Growth Rate ([3]; Water + QAH, QAH 0.010%): 100%; Aspergillus niger Growth Rate ([3]; Water + QAH, QAH 0.100%): 100%; Aspergillus niger Growth Rate ([3]; Water + QAH, QAH 1.000%): 0%; Pseudomonas aeruginosa Growth Rate ([6]; CMC + QAH, QAH 0.100%): 0%; Pseudomonas aeruginosa Growth Rate ([6]; CMC + QAH, QAH 1.000%): 0%; Pseudomonas aeruginosa Growth Rate ([6]; Water + QAH, QAH 0.010%): 0%; Pseudomonas aeruginosa Growth Rate ([6]; Water + QAH, QAH 0.100%): 0%; Pseudomonas aeruginosa Growth Rate ([6]; Water + QAH, QAH 1.000%): 0%
CCCCCCCCCCCCCCCCCC[N+](C)(C)C.[Cl-] [TMSAC, Trimethylstearylammonium chloride] | 0% | 0% | 0% | 100% | 100% | 50% | 0% | 0% | 0% | 0% | 0% | 0% | 0% | 0% | 0% | 0% | 0% | 0% | remarkable effectiveness | 0% | Pseudomonas aeruginosa Growth Rate ([6]; CMC + QAH, QAH 0.100%): 0%; Pseudomonas aeruginosa Growth Rate ([6]; CMC + QAH, QAH 1.000%): 0%; Pseudomonas aeruginosa Growth Rate ([6]; Water + QAH, QAH 0.010%): 100%; Pseudomonas aeruginosa Growth Rate ([6]; Water + QAH, QAH 0.100%): 50%; Pseudomonas aeruginosa Growth Rate ([6]; Water + QAH, QAH 1.000%): 0%
